The text below walks through data of PMC3545969, “Mutagenicity and antimutagenicity of (−)-hinokinin a trypanosomicidal compound measured by Salmonella microsome and comet assays” (BMC Complementary and Alternative Medicine, 2012).

Like-named read-outs stand apart in the source and are kept apart here. Marks after values point to notes of the source that are not given here.

Series [1] relates to Salmonella typhimurium TA100.
For series [2], the system named is Salmonella typhimurium TA97a. To be noted: TA 97a, + S9, mutagen alone (Ctrol +), 2-AA 1.25 μg/plate.
Series [3] deals with Salmonella typhimurium TA98. To be noted: TA 98, + S9, positive control 2-anthramine 1.25 μg/plate.
Series [4] deals with Salmonella typhimurium TA97a. To be noted: TA 97a, + S9, positive control 2-anthramine 1.25 μg/plate.
For the next series, the system named is V79 cells. The experiment in a line: Comet assay, genotoxicity in V79 cells. The arrangement: Class 0 / Class 1 / Class 2 / Class 3: unit not given here. In kind it is cell-based, Chinese hamster. Conditions: for Class 0 / Class 1 / Class 2 / Class 3 / Score: 3 h. The protocol:
Chinese hamster lung fibroblasts (V79) were kindly supplied by Professor Cólus (Universidade Estadual de Londrina (UEL), Paraná, Brazil). Cells were maintained as monolayers in plastic culture flasks (25 cm^2) in HAM-F10 (Sigma-Aldrich) plus DMEM (Sigma-Aldrich, 1:1) culture medium supplemented with 10%; fetal bovine serum (Nutricell), antibiotics (0.01 mg mL^−1 streptomycin and 0.005 mg mL^−1 penicillin; Sigma-Aldrich) and 2.38 mg mL^−1 Hepes (Sigma-Aldrich), at 37°C in a BOD-type chamber. Under these conditions, the average cell cycle time was 12 h.
HK was first dissolved in a mixture of methanol (100 μL) and distilled water (900 μL). The final concentration of methanol in the culture was 0.1%;. The choice of concentrations was based on the results of previous experiments with HK [12]. In the experiments, 3 × 10^5 cells (V79) were seeded into tissue-culture flasks, incubated for two cycles (24 h) in complete HAM-F10/DMEM medium, washed with phosphate buffer saline (PBS), and then subjected to one of the following treatments, in serum-free medium, for 3 h. To assess genotoxicity, the cells were treated with each concentration of HK alone, while for antigenotoxicity, they were treated with the mutagen DXR (0.3 μM) in combination with each HK concentration. Positive (DXR) and negative controls were also included in the test. At the end of the treatment, the cells were washed with ice-cold PBS and trypsinized with 200 μL trypsin. After 3 min, the cells were gently resuspended in complete medium and 20 μL of the cell suspension was immediately used for the test.
The procedures described by Singh et al. were adopted, with minor modifications, as described in detail by Speit and Hartmann and reviewed by Burlinson et al.. Briefly, a microscope slide was covered with a base layer of 1.5%; normal-melting agarose (Invitrogen) and 20 μL of the test cells suspended in 120 μL 0.5%; low-melting agarose (Invitrogen) at 37°C was then spread over the base layer. A coverslip was added and the agarose allowed to solidify at 4°C for 15 min. Next, the coverslip was gently removed and the slides were immersed in freshly prepared lysing solution consisting of 89 mL stock solution (2.5 M NaCl, 100 mM EDTA, 10 mM Tris, pH 10.0, and 1%; sodium lauryl sarcosine), 10 mL DMSO and 1 mL Triton X-100, pH 10.0, at 4°C, for at least 20 h, protected from light. At the end of this period, the slides were transferred to an electrophoresis chamber containing a high pH (>13.0) buffer (300 mM NaOH, 1 mM EDTA) and incubated at 4°C for 20 min to allow the DNA to unwind. A current of 25 V (1.0 V cm^−1, 300 mA) was applied for 20 min. The slides were then submerged in a neutralization buffer (0.4 M Tris - HCl, pH 7.5) for 15 min, dried at room temperature and fixed in 100%; ethanol for 10 min.
The slides were stained with 100 μL ethidium bromide (20 μg ml^−1) and covered with a coverslip. All the slides in the experiment were coded before analysis. The stained nucleoids were immediately evaluated at 1000x magnification under a Nikon fluorescence microscope fitted with a 515–560 nm excitation filter and a 590 nm barrier filter.
For each treatment, the extent and distribution of DNA damage indicated by the comet assay were evaluated by examining 100 randomly selected and non-overlapping cells on the slides (i.e. 300 nucleoids per treatment). For each slide, the cells were visually scored and allocated to one of four classes (0, 1, 2 and 3), according to tail size, as follows: class 0, undamaged, no tail; class 1, a short tail whose length was smaller than the diameter of the comet head (nucleus); class 2, tail length between 1 and 2 times the diameter of the head; and class 3, maximally damaged: a long tail measuring more than twice the diameter of the head. The few comets containing no head and those with almost all DNA in the tail, or with a very wide tail, were excluded from the analysis since they may arise from dead cells. […]

Series [5] deals with Salmonella typhimurium TA100. This is another data set of the same source.
The mark [6] stands for this setting: DXR 0.3 μM alone (positive control).

As to `Nc1ccc2cc3ccccc3cc2c1` [2-AA, 2-aminoanthracene, reference compound], the “Number of revertants(M ± SD)/ plate” value in series [1] (TA 100, + S9, positive control 2-anthramine 1.25 μg/plate) is given as 1456 ± 78^e revertants/plate; in series [2], 1083 + 67 revertants/plate; in series [3], 1567 ± 115^e revertants/plate; in series [4], 1789 ± 89^e revertants/plate.

Consider `COc1cccc2c1C(=O)c1c(O)c3c(c(O)c1C2=O)C[C@@](O)(C(=O)CO)C[C@@H]3O[C@H]1C[C@H](N)[C@H](O)[C@H](C)O1` [DXR, doxorubicin, reference compound], for which, in the series on V79 cells (DXR 0.3 μM + MeOH 0.1%), the “Class 0” value is reported as 46.3 ± 6.8, the “Class 1” value is reported as 30.0 ± 6.0, the “Class 2” value is 16.3 ± 5.6 and the “Class 3” value amounted to 6.6 ± 3.0. Moreover, the Score in the series with V79 cells (DXR 0.3 μM + MeOH 0.1%) is on record as 83.3 ± 14.5^a. Further, in the series on V79 cells (setting [6]), the “Class 0” value was 41.0 ± 12.0, the “Class 1” value stood at 36.0 ± 12.7, the “Class 2” value is reported as 18.0 ± 2.0 and the “Class 3” value was 4.0 ± 2.5. Also, in the series with V79 cells (setting [6]), the Score is on record as 86.0 ± 11.5^a. For the same compound, the “rate of DNA damage relative to the negative control” value in the series with V79 cells (DXR 0.3 μM, V79 cells) is “significant increase in the rate of DNA damage”.

Regarding `[N-]=[N+]=[N-].[Na+]` [SA, sodium azide, reference compound], the “Number of revertants(M ± SD)/ plate” value in series [1] is on record as 1582 ± 98^c revertants/plate; in series [5], 1219 + 46 revertants/plate.

Take aflatoxin B1 [AFB1, reference compound]: in series [5], the “Number of revertants(M ± SD)/ plate” value was 1607 + 79 revertants/plate.
